Legend:
[1] = system: Human breast cancer cell line T-47D; test: Caspase cascade activation assay (N-(Ac-DEVD)-N'-ethoxycarbonyl-R110 fluorogenic substrate) in T-47D cells; format: cell-based; details: for Caspase activity (Ratio) T-47D: ratio of net RFU of test compound to control, 3 h substrate reading
Method: (§1) Human breast cancer cell lines T-47D and ZR-75-1 were grown according to media component mixtures designated by American Type Culture Collection +10% FCS (Invitrogen Corporation), in a 5% CO2 −95% humidity incubator at 37° C. T-47D and ZR-75-1 cells were maintained at a cell density between 30 and 80% confluency at a cell density of 0.1 to 0.6×10^6 cells/mL. Cells were harvested at 600×g and resuspended at 0.65×10^6 cells/mL into appropriate media +10% FCS. An aliquot of 45 μl of cells was added to a well of a 96-well microtiter plate containing 5 μl of a 10% DMSO in RPMI-1640 media solution containing 0.16 to 10 μM of 3-cyano-7-methoxy-4-(3-bromo-4,5-dimethoxyphenyl)-2-oxo-2H-chromene (Example 1) or other test compound (0.016 to 1 μM final). An aliquot of 45 μl of cells was added to a well of a 96-well microtiter plate containing 5 μl of a 10% DMSO in RPMI-1640 media solution without test compound as the control sample. The samples were mixed by agitation and then incubated at 37° C. for 24 h in a 5% CO2 −95% humidity incubator. After incubation, the samples were removed from the incubator and 50 μl of a solution containing 20 μM of N-(Ac-DEVD)-N′-ethoxycarbonyl-R110 fluorogenic substrate (SEQ ID NO:1) (Cytovia, Inc.; WO99/18856), 20% sucrose (Sigma), 20 mM DTT (Sigma), 200 mM NaCl (Sigma), 40 mM Na PIPES buffer pH 7.2 (Sigma), and 500 μg/ml lysolecithin (Calbiochem) was added. The samples were mixed by agitation and incubated at room temperature. Using a fluorescent plate reader (Model 1420 Wallac Instruments), an initial reading (T=0) was made approximately 1-2 min after addition of the substrate solution, employing excitation at 485 nm and emission at 530 nm, to determine the background fluorescence of the control sample. After the 3 h incubation, the samples were read for fluorescence as above (T=3 h).
(§2) The Relative Fluorescence Unit values (RFU) were used to calculate the sample readings as follows: RFU(T=3 h)−Control RFU(T=0)=Net RFU(T=3 h)
(§3) The activity of caspase cascade activation was determined by the ratio of the net RFU value for 3-cyano-7-methoxy-4-(3-bromo-4,5-dimethoxy-phenyl)-2-oxo-2H-chromene, or other test compound, to that of control samples. The EC50 (nM) was determined by a sigmoidal dose-response calculation (Prism 2.0, GraphPad Software Inc.).

[2] = system: Human breast cancer cell line ZR-75-1; test: Caspase cascade activation assay (N-(Ac-DEVD)-N'-ethoxycarbonyl-R110 fluorogenic substrate) in ZR-75-1 cells; format: cell-based; details: for maximal fold induction: ZR-75-1, 24 h, read-out: Max efficacy ZR751; for Caspase activity (Ratio) ZR-75-1: ratio of net RFU of test compound to control, 3 h substrate reading
Method: as §1, §2, §3

[3] = commercial fused-pyridine compounds, T47D cells
[4] = Homo sapiens, commercial fused-pyridine compounds, ZR751 cells
[5] = Homo sapiens, ZR-75-1, commercial fused-pyridine compounds, ZR751 cells
[6] = Homo sapiens, T47D, caspase cascade activation potency, T-47D cells, 24 h incubation
[7] = Homo sapiens, caspase cascade activation potency, ZR-75-1 cells, 24 h incubation
[8] = caspase cascade activation potency, T-47D cells, 24 h incubation
[9] = caspase cascade activation potency, ZR-75-1 cells, 24 h incubation

Row | SMILES | EC50 [1, 6] [nM] | EC50 [2, 7] [nM] | Caspase activity (Ratio) T-47D ([1]; T-47D cells, 24 h incubation) | Caspase activity (Ratio) ZR-75-1 ([2]; ZR-75-1 cells, 24 h incubation) | also measured
1 | C=CCNc1nc2nc(N)c(C#N)c(-c3ccc(Br)cc3)c2s1 [compound 48] | – | – | – | – | EC50 (nM) T47D [1, 3]: Inactive; Max efficacy T47D [1, 3]: Inactive; maximal fold induction [2, 4]: 2.9; EC50 [2, 5]: 6040 nM
2 | N#Cc1c(N)nc2sc(C(N)=O)c(N)c2c1-c1ccc(Br)cc1 [compound 47] | – | – | – | – | EC50 (nM) T47D [1, 3]: Inactive; Max efficacy T47D [1, 3]: Inactive; maximal fold induction [2, 4]: 2.7; EC50 [2, 5]: 6110 nM
3 | N#Cc1c(N)nc2[nH]c(=S)[nH]c(=O)c2c1-c1ccc(Cl)cc1 [compound 51] | – | – | – | – | EC50 (nM) T47D [1, 3]: Inactive; Max efficacy T47D [1, 3]: Inactive; maximal fold induction [2, 4]: 2.8; EC50 [2, 5]: 5380 nM
4 | COc1ccc(-c2c(C#N)c(N)nc3c2CCCC3C)cc1 (stereo not drawn) [compound 49] | – | – | – | – | EC50 (nM) T47D [1, 3]: Inactive; Max efficacy T47D [1, 3]: Inactive; maximal fold induction [2, 4]: 4.8; EC50 [2, 5]: 5710 nM
5 | COc1ccc2c(-c3cc(Br)c(OC)c(OC)c3)c(C#N)c(=O)[nH]c2c1 [Example 9, 4-(3-Bromo-4,5-dimethoxy-phenyl)-3-cyano-7-methoxy-quinolin-1H-2-one] | – | – | 4.4 | 7.4 | EC50 [1, 8]: 4410 nM; EC50 [2, 9]: 2050 nM
6 | N#Cc1c(-c2ccccc2)c2ccccc2oc1=O [Example 4, 3-Cyano-4-phenyl-2-oxo-2H-chromene] | – | – | Inactive | Inactive | EC50 (nM) T-47D [1, 8]: Inactive; EC50 (nM) ZR-75-1 [2, 9]: Inactive
7 | N#Cc1c(N)nc2c(c1-c1cccs1)CCCC2 [compound 46] | – | – | – | – | EC50 (nM) T47D [1, 3]: Inactive; Max efficacy T47D [1, 3]: Inactive; maximal fold induction [2, 4]: 3.1; EC50 [2, 5]: 3410 nM
8 | COc1cccc(-c2c(C#N)c(=N)sc3cc(OC)ccc23)c1 [Example 30, 2-Imino-3-cyano-7-methoxy-4-(3′-methoxy-phenyl)-2H-thiochromene] | – | – | Inactive | Inactive | EC50 (nM) T-47D [1, 8]: Inactive; EC50 (nM) ZR-75-1 [2, 9]: Inactive
9 | COc1ccccc1-c1c(C#N)c(N)nc2c1CCc1ccccc1-2 [compound 44] | – | – | – | – | maximal fold induction ([1]; Homo sapiens, 24 h, commercial fused-pyridine compounds, T47D cells, read-out: Max efficacy T47D): 10.7; EC50 ([1]; Homo sapiens, commercial fused-pyridine compounds, T47D cells): 3120 nM; maximal fold induction [2, 4]: 19.2; EC50 [2, 5]: 2040 nM
10 | N#Cc1c(-c2ccccc2)c2ccccc2oc1=N [Example 3, 3-Cyano-2-imino-4-phenyl-2H-chromene] | – | – | Inactive | Inactive | EC50 (nM) T-47D [1, 8]: Inactive; EC50 (nM) ZR-75-1 [2, 9]: Inactive
11 | N#Cc1c(-c2ccccc2)c2ccccc2[nH]c1=O [Example 6, 3-Cyano-4-phenyl-quinolin-1H-2-one] | – | – | 9.1 | 10.6 | EC50 [1, 8]: 4800 nM; EC50 [2, 9]: 882 nM
12 | COc1cc(-c2c(C#N)c(=O)oc3cc(N(C)C)ccc23)cc(Br)c1OC [Example 21, 3-Cyano-7-dimethylamino-4-(3-bromo-4,5-dimethoxyphenyl)-2-oxo-2H-chromene] | 546 | 279 | 5.8 | 9.1 | –
13 | Cn1ccc2c3oc(=O)c(C#N)c(-c4cccc(Br)c4)c3ccc21 [Example 42, 3-Cyano-4-(3-bromo-phenyl)-7-methyl-2-oxo-2H-pyrrolo[2,3-h]chromene] | 56 | 17 | 2.6 | 4.2 | –
14 | COc1cc(-c2c(C#N)c(N)nc3c2CCc2ccccc2-3)cc(Br)c1OC [Example 19, 2-Amino-4-(3-bromo-4,5-dimethoxyphenyl)-3-cyano-5,6-dihydro-benzo[h]quinoline] | 4060 | 556 | 5.4 | 7.9 | –
15 | COc1cc(-c2c(C#N)c(=N)oc3cc(N(C)C)ccc23)cc(Br)c1OC [Example 31, 2-Imino-3-cyano-7-dimethylamino-4-(3-bromo-4,5-dimethoxyphenyl)-2H-chromene] | 2500 | – | – | – | –

Now from value to compound, other results behind:

Row | EC50 [1, 6] [nM] | EC50 [2, 7] [nM] | SMILES | Caspase activity (Ratio) T-47D ([1]; T-47D cells, 24 h incubation) | Caspase activity (Ratio) ZR-75-1 ([2]; ZR-75-1 cells, 24 h incubation) | also measured
16 | 44 | 11 | COc1cc(OC)cc(-c2c(C#N)c(=O)oc3cc(OC)ccc23)c1 [Example 2, 3-Cyano-7-methoxy-4-(3,5-dimethoxyphenyl)-2-oxo-2H-chromene] | 4.1 | 5.4 | –
17 | – | 400 | COc1cc(OC)cc(-c2c(C#N)c(=O)oc3cc(N)ccc23)c1 [Example 22, 7-Amino-3-cyano-4-(3,5-dimethoxyphenyl)-2-oxo-2H-chromene] | 1.5 | 3.4 | EC50 (nM) T-47D [1, 8]: Inactive
18 | 200 | 111 | COc1cccc(C2=c3ccc4c(c3OC(=O)C2C#N)C=CN=4)c1 (stereo not drawn) [Example 5, 3-Cyano-4-(3-methoxyphenyl)-2-oxo-2H-pyrrolo[2,3-h]chromene] | 2.0 | 10.4 | –
19 | 106 | 174 | COc1cc(OC)cc(C2=c3ccc4c(c3OC(=O)C2C#N)C=CN=4)c1 (stereo not drawn) [Example 16, 4-(3,5-Dimethoxyphenyl)-3-cyano-2-oxo-2H-pyrrolo[2,3-h]chromene] | 3.1 | 3.6 | –
20 | 55 | 22 | COc1cccc(-c2c(C#N)c(=O)oc3c2ccc2c3ccn2C)c1 [Example 41, 3-Cyano-4-(3-methoxy-phenyl)-7-methyl-2-oxo-2H-pyrrolo[2,3-h]chromene] | 2.3 | 4.9 | –
21 | 1490 | 320 | COc1cc(-c2c(C#N)c(=O)oc3cc(N)ccc23)cc(Br)c1OC [Example 18, 7-Amino-4-(3-bromo-4,5-dimethoxyphenyl)-3-cyano-2-oxo-2H-chromene] | 2.2 | 7.1 | –
22 | 456 | 429 | COc1cc(OC)cc(-c2c(C#N)c(=O)oc3cc(N(C)C)ccc23)c1 [Example 23, 3-Cyano-7-dimethylamino-4-(3,5-dimethoxyphenyl)-2-oxo-2H-chromene] | 2.3 | 7.2 | –
23 | 99.7 | 43.4 | COc1cccc(-c2c(C#N)c(=O)oc3cc(OC)ccc23)c1 [Example 17, 3-Cyano-4-(3-methoxy-phenyl)-7-methoxy-2-oxo-2H-chromene] | 8.9 | 11.7 | –
24 | 2960 | – | COc1cc(-c2c(C#N)c(=O)oc3cc(Cl)ccc23)cc(Br)c1OC [Example 28, 4-(3-Bromo-4,5-dimethoxy-phenyl)-7-chloro-3-cyano-2-oxo-2H-chromene] | 2.2 | – | –
25 | 1090 | 356 | CNc1ccc2c(-c3cc(Br)c(OC)c(OC)c3)c(C#N)c(=O)oc2c1 [Example 25, 4-(3-Bromo-4,5-dimethoxy-phenyl)-3-cyano-7-methylamino-2-oxo-2H-chromene] | 4.9 | 6.1 | –
26 | 257 | 97 | COc1ccc2c(-c3cc(Br)c(OC)c(OC)c3)c(C#N)c(=O)oc2c1 [Example 1, 3-Cyano-7-methoxy-4-(3-bromo-4,5-dimethoxyphenyl)-2-oxo-2H-chromene] | 6.2 | 4.2 | –

Source: patent publication US7235674B2, “Substituted coumarins and quinolines and analogs as activators of caspases and inducers of apoptosis and the use thereof” (Cytovia, Inc., priority 2001, dated 2007)
